Earlier results on 10 compounds are cited in patent publication US9289396B2, “Collagen-based implants for sustained delivery of drugs” (Euclid Systems Corporation, priority 2010, dated 2016).

For series [1] the following is noted: in phosphate buffer.

Turning to `CNCC(O)c1ccc(OC(=O)C(C)(C)C)c(OC(=O)C(C)(C)C)c1` (stereo not shown) [dipivefrin], the “Approx. Solubility in water” value is 58 µg/mL. Turning to `CC(C)OC(=O)CCC/C=C\C[C@@H]1[C@@H](CC[C@@H](O)CCc2ccccc2)[C@H](O)C[C@@H]1O` [latanoprost, 13,14-dihydro-17-phenyl-18,19,20-trinor-prostaglandin F2a-1-isopropyl ester], in series [1], the aqueous solubility entry is reported as “about 50 μg/mL”. Take `CN1CCC(=C2c3ccccc3CC(=O)c3sccc32)CC1` [ketotifen]: the “Approx. Solubility in water” value is 8 µg/mL. Turning to `CCNC(=O)CCC/C=C\C[C@@H]1[C@@H](/C=C/[C@@H](O)CCc2ccccc2)[C@H](O)C[C@@H]1O` [bimatoprost], the “Approx. Solubility in water” value is 20 µg/mL. Consider `CN(CCCCCCCCCCN(C)C(=O)Oc1cccc([N+](C)(C)C)c1)C(=O)Oc1cccc([N+](C)(C)C)c1` [demecarium], for which the “Approx. Solubility in water” value was 0.1 µg/mL. Regarding `C[C@H]1C[C@H]2[C@@H]3CCC4=CC(=O)C=C[C@]4(C)[C@@]3(F)[C@@H](O)C[C@]2(C)[C@@]1(O)C(=O)CO` [betamethasone], the “Approx. Solubility in water” value is 0.5 µg/mL. For the compound `CC(C)OC(=O)CCC/C=C\C[C@@H]1[C@@H](/C=C/[C@@H](O)COc2cccc(C(F)(F)F)c2)[C@H](O)C[C@@H]1O` [travoprost], the “Approx. Solubility in water” value is 8 µg/mL. On to `NC(=O)Cc1cccc(C(=O)c2ccccc2)c1N` [nepafenac], for which the “Approx. Solubility in water” value was 20 µg/mL.

On to `CC(C(=O)O)c1ccc(C(=O)c2cccs2)cc1` (stereo not shown) [suprofen], for which the “Approx. Solubility in water” value was 40 µg/mL. Turning to `CCOC(=O)O[C@]1(C(=O)OCCl)CC[C@H]2[C@@H]3CCC4=CC(=O)C=C[C@]4(C)[C@H]3[C@@H](O)C[C@@]21C` [loteprednol etabonate], the “Approx. Solubility in water” value was 7 µg/mL.
